The results in this text go back to paper PMC8069214, “Synthesis, Biological Evaluation, and Molecular Modeling of Aza-Crown Ethers” (Molecules, 2021).

Series [1] deals with human neutrophils. Description: Ca2+ mobilization assay, direct effect of compounds on [Ca2+]i. Type of series: cell-based. Particulars: Neutrophil; for Emax: % of the response induced by 5 nM fMLF, read-out: Efficacy (converted). The text has this:
We screened 24 aza- and diaza-crown ethers with adamantyl, adamantylalkyl, aminomethylbenzoyl, and ε-aminocaproyl substituents for their Ca^2+ ionophore effects in human neutrophils. To monitor cytoplasmic Ca^2+ levels, we used the fluorescent Ca^2+ indicator Fluo-4, which is a dynamic single-wavelength fluorescent Ca^2+ indicator. Increases in fluorescence intensity (λex = 485 nm, λem = 538 nm) reflect the rise in cytoplasmic Ca^2+ concentrations ([Ca^2+]i; see Materials and Methods).
Changes in neutrophil intracellular Ca^2+ concentrations ([Ca^2+]i) were measured with a FlexStation 3 scanning fluorometer (Molecular Devices, Sunnyvale, CA, USA). Briefly, human neutrophils were suspended in HBSS^−, loaded with Fluo-4AM at a final concentration of 1.25 μg/mL, and incubated for 30 min in the dark at 37 °C. After dye loading, the cells were washed with HBSS^−, resuspended in HBSS^+, separated into aliquots, and loaded into the wells of flat-bottom, half-area well black microtiter plates (2 × 10^5 cells/well). To assess the direct effects of test compounds on Ca^2+ flux, the compounds were added to the wells (final concentration of DMSO was 1%), and changes in fluorescence were monitored (λex = 485 nm, λem = 538 nm) every 5 s for 240 s at room temperature after addition of the test compound. To evaluate inhibitory effects of the compounds on FPR1/FPR2-dependent Ca^2+ flux, the compounds were added to the wells (final concentration of DMSO was 1%) with cells (human neutrophils or FPR1/FPR2 HL60 cells). The samples were preincubated for 10 min, followed by addition of 5 nM fMLF (for human neutrophils or FPR1-HL60 cells) or 5 nM WKYMVM (for FPR2-HL60 cells). The maximum change in fluorescence, expressed in arbitrary units over baseline, was used to determine the agonist response. Responses were normalized to the response induced by 5 nM fMLF or 5 nM WKYMVM, which were assigned as 100%. Curve fitting (at least five or six points) and calculation of median effective concentration values (EC50 or IC50) were performed by nonlinear regression analysis of the dose–response curves generated using Prism 7 (GraphPad Software, Inc., San Diego, CA, USA). Efficacy was determined by comparing individual responses activated by the test compounds to that induced by a positive control (5 nM fMLF), which was assigned a value of 100%.
On the technique in general: A change in cytosolic calcium serves as a functional read-out for many receptors and channels.

For series [2], the system named is human neutrophils. Description: fMLF-induced neutrophil chemotaxis (ChemoTx chambers). Type of series: cell-based. To be noted: 1 h, 1 nM fMLF, 60 min migration. How it is done:
Human neutrophils were suspended in HBSS^+ containing 2% (v/v) heat-inactivated fetal bovine serum (2 × 10^6 cells/mL), and effects of the compounds on fMLF-induced chemotaxis was analyzed in 96-well ChemoTx chemotaxis chambers (Neuroprobe, Gaithersburg, MD, USA). In brief, neutrophils were preincubated with the indicated concentrations of the test compounds or DMSO for 20 min at room temperature and added to the upper wells of the ChemoTx chemotaxis chambers. The lower wells were loaded with 30 µL of HBSS^+ containing 2% (v/v) fetal bovine serum and the indicated concentrations of test sample plus 1 nM fMLF, DMSO (negative control), or 1 nM fMLF as a positive control. Neutrophils were added to the upper wells and allowed to migrate through the 5.0-µm pore polycarbonate membrane filter for 60 min at 37 °C and 5% CO2. The number of migrated cells was determined by measuring ATP in lysates of transmigrated cells using a luminescence-based assay (CellTiter-Glo; Promega, Madison, WI, USA), and luminescence measurements were converted to absolute cell numbers by comparison of the values with standard curves obtained with known numbers of neutrophils. Curve fitting (at least eight to nine points) and calculation of median effective concentration values (IC50) were performed by nonlinear regression analysis of the dose-response curves generated using Prism 5.

The mark [3] stands for this setting: Homo sapiens, elevation of [Ca2+]i, Fluo-4, N.A. = no activity was found at concentration < 50 µM, read-out: EC50, effect on [Ca^2+]i flux in human neutrophils.
Where [4] appears, read: reciprocal of EC50 in human neutrophils, inactive compounds assigned zero, read-out: 1/[EC50] (converted).

Like-named read-outs stand apart in the source and are kept apart here.

By IC50 is commonly meant the point on the concentration scale where inhibition reaches its midpoint. Read a low IC50 as greater potency in that assay. As for `O=C(CC12CC3CC(CC(C3)C1)C2)N1CCOCCOCCN(C(=O)CC23CC4CC(CC(C4)C2)C3)CCOCCOCC1` [Compound 17, N,N’-bis[2-(1-adamantyl)acetyl]-4,13-diaza-18-crown-6], the values for the EC50 in the series on human neutrophils [1] (setting [3]) and in the series with human neutrophils [1] (setting [4]) were 15.9 ± 2.5 µM and 15.9 µM, respectively. In the series with human neutrophils [2], this compound came in with an IC50 of 5.2 ± 1.7 µM.
Regarding `O=C(N1CCOCCOCCN(C(=O)C23CC4CC(CC(C4)C2)C3)CCOCC1)C12CC3CC(CC(C3)C1)C2` [Compound 13, N,N’-bis[1-oxo-1-(1-adamantyl)methyl]-4,10-diaza-15-crown-5], the Emax in the series with human neutrophils [1] (Homo sapiens) was 25 to 50%. The values for the EC50 with human neutrophils [1] (setting [3]) and in the series with human neutrophils [1] (setting [4]) were 6.9 ± 2.1 µM and 6.9 µM, respectively. Moreover, it took 5.8 ± 1.4 µM to reach half-maximal inhibition in the series with human neutrophils [2] (IC50).
On the same counts, the results for `O=C(N1CCOCCOCCOCCN(C(=O)C23CC4CC(CC(C4)C2)C3)CCOCC1)C12CC3CC(CC(C3)C1)C2` [Compound 14, N,N’-bis[1-oxo-1-(1-adamantyl)methyl]-4,10-diaza-18-crown-6] are 25 to 50%, 9.5 ± 2.7 µM, 9.5 µM and 6.1 ± 2.1 µM.
For orientation: melting point means the temperature, or range, at which the solid turns liquid. Regarding `O=C(CC12CC3CC(CC(C3)C1)C2)N1CCOCCOCCN(C(=O)CC23CC4CC(CC(C4)C2)C3)CCOCC1` [Compound 15, N,N’-bis[2-(1-adamantyl)acetyl]-4,10-diaza-15-crown-5], the melting point is 72 to 76 °C. In the series on human neutrophils [1] (Homo sapiens), the Emax was 110%. For the same compound, the EC50 with human neutrophils [1] (setting [3]) amounted to 4.7 ± 1.5 µM. Besides, in the series with human neutrophils [1] (setting [4]), the EC50 is 4.7 µM. Besides, in the series with human neutrophils [2], the IC50 came to 5.7 ± 0.2 µM.
